Laboratory results: patent US20230131720A1, “[1,3]DIAZINO[5,4-d]PYRIMIDINES AS HER2 INHIBITORS” (Boehringer Ingelheim International GmbH, priority 2020, published 2023)
Read-outs that look alike come from different tables or passages of the source.

What was measured:
Type in all cases: cell-based
[1] = tested on: EGFR WT dependent A431 cells; assay: Tumor cell line proliferation assay, A431; conditions: Homo sapiens, A-431, 72 h, CellTiter-Glo, read-out: GI50 A431 EGFR wt amp.
Experimental: (§1) For proliferation assays, NCI-H2170 (HER2 wild type), NCI-H2170 HER2 YVMA and EGFR WT dependent A431 cells were used. NCI-H2170 HER2 YVMA or NCI-H2170 cells were seeded into 96-well plates at 750 cells/60 μL in growth media (RPMI ATCC+10% FBS, +Penicillin/Streptomycin). […] Compounds were added by using a HP D3000 Digital Dispenser one day after plating the cells. All treatments were performed in technical triplicates. Treated cells were incubated for 72 h at 37° C. with 5% CO2. CellTiter-Glo® Luminescent Cell Viability Assay (Promega) was performed and chemoluminescence was measured by using the multilabel Plate Reader VICTOR X4. The raw data were imported into and analyzed with the Boehringer Ingelheim proprietary software MegaLab (curve fitting based on the program PRISM, GraphPad Inc.).

[2] = tested on: Ba/F3 cells HER2 mutants (YVMA); assay: Ba/F3 proliferation assay, HER2 YVMA; conditions: Mus musculus, BaF3, 72 h, CellTiter-Glo
Experimental: (§2) Plasmids containing HER2 mutants and EGFR WT were obtained from GeneScript. To generate EGFR/HER2-dependent Ba/F3 models, Ba/F3 cells were transduced with retroviruses containing vectors that harbor EGFR WT, HER2 WT or HER2 mutants (YVMA). Platinum-E cells (Cell Biolabs) were used for retrovirus packaging. Retrovirus was added to Ba/F3 cells. To ensure infection, 4 μg/mL polybrene was added and cells were spinfected. Infection efficiency was confirmed by measuring GFP-positive cells using a cell analyzer. Cells with an infection efficiency of 10% to 20% were further cultivated and puromycin selection with 1 μg/mL was initiated. As a control, parental Ba/F3 cells were used to assess the selection status. Selection was considered successful when parental Ba/F3 cells cultures died. To evaluate the transforming potential of HER2 mutations, the growth medium was no longer supplemented with IL-3. Ba/F3 cells harboring the empty vector were used as a control. A switch from IL-3 to EGF was performed for Ba/F3 cells with the EGFR WT known for its dependency on EGF ligand. Approximately ten days before conducting the experiments, puromycin was left out. For proliferation assays (data in table 12 and 14), Ba/F3 cells were seeded into 96-well plates at 5×10^3 cells/100 μL in growth media. Compounds were added by using a HP D3000 Digital Dispenser. All treatments were performed in technical triplicates. Treated cells were incubated for 72 h at 37° C. with 5% CO2. CellTiter-Glo® Luminescent Cell Viability Assay (Promega) was performed and chemoluminescence was measured by using the multilabel Plate Reader VICTOR X4. The raw data were imported into and analyzed with the Boehringer Ingelheim proprietary software MegaLab (curve fitting based on the program PRISM, GraphPad Inc.).

Ba/F3 cells EGFR WT = assay: Ba/F3 proliferation assay, EGFR WT (EGF dependent); conditions: Mus musculus, CellTiter-Glo, read-out: GI50 BAF3 EGF dep.
Experimental: as §2

[3] = tested on: NCI-H2170 HER2 YVMA cells; assay: Tumor cell line proliferation assay, NCI-H2170 HER2 YVMA; conditions: Homo sapiens, 72 h, CellTiter-Glo, read-out: GI50 NCI H-2170 HER2 YVMA
Excerpt: Homology-directed genome engineering was employed to insert a 12 nucleotide sequence encoding YVMA into Exon 20 of the genomic HER2 locus in NCI-H2170 cells. […] The DNA template containing the HER2 exon 20 YVMA insertion variant was obtained from GenScript. PCR followed by Sanger sequencing was used to confirm the presence of the 12-nucleotide insertion in HER2 Exon 20 resulting in the YVMA amino acid duplication.
as §1

EGFR wild type (WT) = biological target: T1, EGFR wild type (WT) (Homo sapiens, UniProt P00533); assay: pEGFR assay (AlphaScreen Surefire, HEK cells); conditions: HEK cells expressing EGFR WT
T1 construct: expressed in transfected cells; host or cells: human HEK cells (ATCC CRL-1573), retroviral transduction
T1 sequence (P00533 25-1210): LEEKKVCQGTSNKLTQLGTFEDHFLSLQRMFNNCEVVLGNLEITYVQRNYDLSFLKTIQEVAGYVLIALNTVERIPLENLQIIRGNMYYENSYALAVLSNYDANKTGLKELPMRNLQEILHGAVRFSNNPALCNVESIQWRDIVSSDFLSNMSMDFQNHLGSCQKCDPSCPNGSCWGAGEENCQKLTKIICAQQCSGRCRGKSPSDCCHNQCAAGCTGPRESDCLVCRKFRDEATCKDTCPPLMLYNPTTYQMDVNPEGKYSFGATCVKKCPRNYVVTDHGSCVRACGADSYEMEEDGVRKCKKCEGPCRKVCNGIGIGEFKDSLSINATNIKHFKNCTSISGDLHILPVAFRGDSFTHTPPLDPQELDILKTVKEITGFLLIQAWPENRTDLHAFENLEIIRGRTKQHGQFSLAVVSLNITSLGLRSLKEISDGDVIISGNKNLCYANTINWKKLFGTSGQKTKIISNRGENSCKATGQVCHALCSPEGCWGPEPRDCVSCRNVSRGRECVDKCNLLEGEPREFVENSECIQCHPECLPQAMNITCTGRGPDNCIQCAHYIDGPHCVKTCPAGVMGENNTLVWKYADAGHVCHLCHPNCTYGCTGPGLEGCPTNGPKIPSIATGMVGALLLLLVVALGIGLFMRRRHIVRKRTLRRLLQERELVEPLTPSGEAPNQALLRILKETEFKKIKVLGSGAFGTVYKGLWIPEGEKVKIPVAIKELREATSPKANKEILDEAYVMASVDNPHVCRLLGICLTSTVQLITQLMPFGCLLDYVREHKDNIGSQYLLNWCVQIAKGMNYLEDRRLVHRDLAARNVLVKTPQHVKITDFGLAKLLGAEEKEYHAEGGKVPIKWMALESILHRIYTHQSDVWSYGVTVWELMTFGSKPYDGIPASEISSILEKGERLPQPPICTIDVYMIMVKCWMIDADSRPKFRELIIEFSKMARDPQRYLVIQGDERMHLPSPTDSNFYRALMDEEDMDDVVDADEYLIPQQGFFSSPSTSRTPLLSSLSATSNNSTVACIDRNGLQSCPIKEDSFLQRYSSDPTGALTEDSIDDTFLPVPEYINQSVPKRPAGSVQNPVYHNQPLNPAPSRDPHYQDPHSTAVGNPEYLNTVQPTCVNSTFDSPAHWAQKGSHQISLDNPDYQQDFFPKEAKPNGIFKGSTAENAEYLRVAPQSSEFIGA
Experimental: This assay quantifies the phosphorylation of EGFR at Tyr1068 and was used to measure the inhibitory effect of compounds on the transgenic EGFR wild type (WT) protein expressed in HEK cells.
Transduced cells were selected using puromycin. p-EGFR Tyr1068 was determined using the AlphaScreen Surefire pEGF Receptor (Tyr1068) Assay (PerkinElmer, TGRERS). For the assay, HEK EGFR WT cells were seeded in MEM medium with 10% FBS. […] Subsequently, 60.000 cells/well in 60 μL were added. Cells were incubated with compounds for 4 h at 37° C. […] The mixture was incubated at a temperature of 20-25° C.—with shaking (700 rpm) for 20 min. After centrifugation, 4 μL of the lysate were transferred to Proxiplates. […] Plates were shaken for 1 min (1400 rpm) and incubated for 2 h at a temperature of 20-25° C. in the dark.
This cellular phospho-EGFR (pEGFR) compound dose-response assay quantifies the phosphorylation of EGFR at Tyr1068 in HEK cells expressing EGFR WT. The results of the assay are provided as IC50 values.

HER2 YVMA = biological target: T2, HER2 YVMA (Homo sapiens, UniProt P04626, INS775YVMA); assay: pHER2 (ERBB2) YVMA assay (AlphaScreen Surefire, HEK cells); conditions: HEK cells expressing HER2 YVMA
T2 construct: expressed in transfected cells; host or cells: human HEK cells, retroviral transduction, doxycycline-inducible expression
T2 sequence (P04626 with tags, fused parts or gaps INS775YVMA): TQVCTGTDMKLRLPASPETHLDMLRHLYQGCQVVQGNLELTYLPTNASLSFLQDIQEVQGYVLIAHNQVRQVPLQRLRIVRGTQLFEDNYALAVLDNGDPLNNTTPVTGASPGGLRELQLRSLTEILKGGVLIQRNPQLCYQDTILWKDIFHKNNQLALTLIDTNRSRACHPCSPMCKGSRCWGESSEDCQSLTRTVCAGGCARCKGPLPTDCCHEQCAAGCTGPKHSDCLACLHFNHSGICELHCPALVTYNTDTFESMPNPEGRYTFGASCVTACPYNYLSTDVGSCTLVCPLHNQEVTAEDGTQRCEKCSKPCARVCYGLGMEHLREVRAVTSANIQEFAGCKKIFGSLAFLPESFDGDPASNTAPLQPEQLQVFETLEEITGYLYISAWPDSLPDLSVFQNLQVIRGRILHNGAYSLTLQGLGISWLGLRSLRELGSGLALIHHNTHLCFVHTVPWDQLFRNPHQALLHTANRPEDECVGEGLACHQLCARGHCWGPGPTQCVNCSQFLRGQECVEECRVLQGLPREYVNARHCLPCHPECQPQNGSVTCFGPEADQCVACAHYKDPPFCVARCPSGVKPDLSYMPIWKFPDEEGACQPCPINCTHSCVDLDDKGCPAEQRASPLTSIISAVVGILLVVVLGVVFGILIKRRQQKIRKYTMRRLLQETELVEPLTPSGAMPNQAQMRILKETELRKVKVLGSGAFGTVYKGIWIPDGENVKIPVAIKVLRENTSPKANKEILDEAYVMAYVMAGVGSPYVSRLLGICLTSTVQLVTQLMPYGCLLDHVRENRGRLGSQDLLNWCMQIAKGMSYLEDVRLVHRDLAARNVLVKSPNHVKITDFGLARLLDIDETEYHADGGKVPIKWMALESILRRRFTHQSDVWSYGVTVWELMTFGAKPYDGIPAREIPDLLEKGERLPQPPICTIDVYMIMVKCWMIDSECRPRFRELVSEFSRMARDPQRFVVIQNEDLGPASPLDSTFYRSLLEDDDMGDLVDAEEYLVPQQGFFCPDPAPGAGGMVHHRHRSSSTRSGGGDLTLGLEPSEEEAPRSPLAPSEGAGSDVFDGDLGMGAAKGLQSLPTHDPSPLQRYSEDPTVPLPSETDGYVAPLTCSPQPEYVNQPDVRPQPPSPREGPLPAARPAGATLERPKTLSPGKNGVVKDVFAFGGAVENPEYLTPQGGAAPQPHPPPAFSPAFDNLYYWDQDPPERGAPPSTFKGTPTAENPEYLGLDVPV
Experimental: For the assay, HEK HER2 YVMA cells were seeded in MEM medium with 10% FBS. 4 hours prior to compound addition, HER2 YVMA expression was induced using 1 μg/ml Doxycycline. […] Subsequently, 60.000 cells/well in 60 μL were added. Cells were incubated with compounds for 4 h at 37° C. […] The mixture was incubated at a temperature of 20-25° C. with shaking (700 rpm) for 20 min. After centrifugation, 4 μL of the lysate were transferred to Proxiplates. […] Plates were shaken for 1 min (1400 rpm) and incubated for 2 h at a temperature of 20-25° C. in the dark.
The results of the assay are provided as IC50 values.

[4] = tested on: NCI-H2170 (HER2 wild type) cells; assay: Tumor cell line proliferation assay, NCI-H2170 (HER2 wild type); conditions: Homo sapiens, 72 h, CellTiter-Glo, read-out: GI50 NCI H-2170 HER2 wt amp.
Experimental: as §1

Ba/F3 cells HER2 WT = assay: Ba/F3 proliferation assay, HER2 WT; conditions: Mus musculus, BaF3, 72 h, CellTiter-Glo
Experimental: as §2

[5] = BaF3, EGF instead of IL-3, 72 h
[6] = phosphorylation at Tyr1068, 4 h
[7] = phosphorylation at Tyr1221/1222, 4 h
[8] = BaF3, prior art compounds (Table 14), EGF, 72 h

Row | SMILES | GI50 [1] | GI50 [2] | GI50 (Ba/F3 cells EGFR WT; [5]) | IC50 (EGFR wild type (WT); [6]) | IC50 (HER2 YVMA; [7]) | GI50 (Ba/F3 cells HER2 WT) | GI50 ([1]; prior art compounds (Table 14)) | GI50 ([2]; prior art compounds (Table 14)) | GI50 (Ba/F3 cells EGFR WT; [8]) | IC50 (EGFR wild type (WT); prior art compounds (Table 13), Tyr1068, 4 h) | IC50 (HER2 YVMA; prior art compounds (Table 13), Tyr1221/1222, 4 h) | GI50 (Ba/F3 cells HER2 WT; prior art compounds (Table 14)) | GI50 [3] | GI50 [4] | GI50 ([3]; prior art compounds (Table 14)) | GI50 ([4]; prior art compounds (Table 14))
1 | C=CC(=O)N1CCN(c2ncc3ncnc(Nc4ccc(Oc5ccn6ncnc6c5)c(Cl)c4)c3n2)CC1 [Example I-2] | 1.57 µM | 0.006 µM | 0.67 µM | 0.062 µM | 0.002 µM | 0.001 µM |  |  |  |  |  |  | 0.04 µM | 0.006 µM |  | 
2 | C=CC(=O)N1CCN(c2ncc3ncnc(Nc4cc(F)c(Oc5ccn6ncnc6c5)c(Cl)c4)c3n2)CC1 [Example I-4] | > 5 µM | 0.02 µM | 1.01 µM | 0.524 µM | 0.018 µM | 0.002 µM |  |  |  |  |  |  | 0.085 µM | 0.012 µM |  | 
3 | C=CC(=O)N1CCN(c2ncc3ncnc(Nc4ccc(Oc5ccn6ncnc6c5)c(C)c4)c3n2)CC1 [Example I-1] | 2.18 µM | 0.009 µM | 1.37 µM | 0.153 µM | 0.003 µM | 0.001 µM |  |  |  |  |  |  | 0.036 µM | 0.006 µM |  | 
4 | C=CC(=O)N1CCN(c2ncc3ncnc(Nc4ccc(Oc5ccn6ncnc6c5)c(C)c4)c3n2)C[C@@H]1C [Example I-5] | 3.64 µM | 0.06 µM | > 5 µM | 0.84 µM | 0.007 µM | 0.004 µM |  |  |  |  |  |  | 0.108 µM | 0.012 µM |  | 
5 | C=CC(=O)N1CCN(c2ncc3ncnc(Nc4cc(Cl)c(Oc5ccn6ncnc6c5)c(Cl)c4)c3n2)CC1 [Example I-3] | 3.83 µM | 0.011 µM | 2.22 µM | 0.371 µM | 0.01 µM | 0.002 µM |  |  |  |  |  |  | 0.07 µM | 0.012 µM |  | 
6 | C=CC(=O)N1CCN(c2ncc3ncnc(Nc4ccc(Oc5ccn6ncnc6c5)c(C)c4)c3n2)C[C@H]1C [Example I-6] | 2.64 µM | 0.015 µM | 2.65 µM | 0.252 µM | 0.006 µM |  |  |  |  |  |  |  | 0.052 µM | 0.009 µM |  | 

The next lines start with results.

Row | GI50 [1] | GI50 [2] | GI50 (Ba/F3 cells EGFR WT; [5]) | IC50 (EGFR wild type (WT); [6]) | IC50 (HER2 YVMA; [7]) | GI50 (Ba/F3 cells HER2 WT) | GI50 ([1]; prior art compounds (Table 14)) | GI50 ([2]; prior art compounds (Table 14)) | GI50 (Ba/F3 cells EGFR WT; [8]) | IC50 (EGFR wild type (WT); prior art compounds (Table 13), Tyr1068, 4 h) | IC50 (HER2 YVMA; prior art compounds (Table 13), Tyr1221/1222, 4 h) | GI50 (Ba/F3 cells HER2 WT; prior art compounds (Table 14)) | SMILES | GI50 [3] | GI50 [4] | GI50 ([3]; prior art compounds (Table 14)) | GI50 ([4]; prior art compounds (Table 14))
7 | 3.79 µM | 0.022 µM | > 5 µM | 0.577 µM | 0.006 µM | 0.003 µM |  |  |  |  |  |  | C=CC(=O)N1CCN(c2ncc3ncnc(Nc4ccc(Oc5ccn6ncnc6c5)c(C)c4)c3n2)[C@@H](C)C1 [Example I-8] | 0.091 µM | 0.014 µM |  | 
8 | 3.99 µM | 0.029 µM | > 5 µM | 1.2 µM | 0.007 µM | 0.004 µM |  |  |  |  |  |  | C=CC(=O)N1CCN(c2ncc3ncnc(Nc4ccc(Oc5ccn6ncnc6c5)c(C)c4)c3n2)[C@H](C)C1 [Example I-7] | 0.125 µM | 0.013 µM |  | 
9 |  |  |  |  |  |  | > 5 µM | 0.334 µM | 3.56 µM | 0.355 µM | 0.081 µM | 0.04 µM | C=CC(=O)Nc1ccc2ncnc(Nc3ccc(Oc4ccn5ncnc5c4)c(C)c3)c2c1 [WO 2007/059257 Ex. 169, reference compound] |  |  | 1.43 µM | 0.426 µM
10 |  |  |  |  |  |  | 0.055 µM | 0.005 µM | 0.014 µM |  |  |  | CCOc1cc2ncc(C#N)c(Nc3ccc(OCc4ccccn4)c(Cl)c3)c2cc1NC(=O)/C=C/CN(C)C [neratinib, reference compound] |  |  | 0.037 µM | 0.003 µM
